These compounds were tested against human norepinephrine transporter (Homo sapiens (Human), UniProt P23975) (assay: Human NET (norepinephrine transporter) uptake assay). Settings: comparison in words, used to assign configuration.
Type: cell-based
Method: This protocol was designed to measure inhibition of uptake by the human norepinephrine transporter. […] The Assay Buffer (AB) was 1×HBSS and 0.02 M HEPES.
The HEK293F cells were transfected with the human norepinephrine transporter and frozen in 1 mL aliquots at about 1E+07 cells/mL. On the day of the experiment, the cells were removed from −80° C. or liquid nitrogen and thawed in a room temperature water bath. The cells were dilute to about 1-2E+06 with Freestyle medium. A 1 mL sample (1:2 dilution) was prepared, and the cells were counted. The cells were spun at 1100 rpm for 5 minutes, and the medium was aspirated off. The cells were resuspend in medium at 1.5E+06 cells/mL for about 60,000 cells per well. 40 μL of cells were dispensed per well in the Biocoat plates. The plates were spun at 1100 rpm for 1 minute to improve homogeneity of the cell layer and were incubated at 37° C. for a minimum of 3 hours.
12 μL of test compound (10 mM) in DMSO was added to the wells, and nomifensine was used as a control. […] The neurotransmitter transporter dye was prepared in AB prior to use.
Due to the proprietary nature of the dye formulation, all dye concentrations were expressed as a percentage of the vendor-recommended dye reconstitution. Thus, the above calculations were valid when both [dye] and Km were expressed in the same units (%). Compounds were tested in triplicate (n=3).

Chain of human norepinephrine transporter (P23975 whole entry): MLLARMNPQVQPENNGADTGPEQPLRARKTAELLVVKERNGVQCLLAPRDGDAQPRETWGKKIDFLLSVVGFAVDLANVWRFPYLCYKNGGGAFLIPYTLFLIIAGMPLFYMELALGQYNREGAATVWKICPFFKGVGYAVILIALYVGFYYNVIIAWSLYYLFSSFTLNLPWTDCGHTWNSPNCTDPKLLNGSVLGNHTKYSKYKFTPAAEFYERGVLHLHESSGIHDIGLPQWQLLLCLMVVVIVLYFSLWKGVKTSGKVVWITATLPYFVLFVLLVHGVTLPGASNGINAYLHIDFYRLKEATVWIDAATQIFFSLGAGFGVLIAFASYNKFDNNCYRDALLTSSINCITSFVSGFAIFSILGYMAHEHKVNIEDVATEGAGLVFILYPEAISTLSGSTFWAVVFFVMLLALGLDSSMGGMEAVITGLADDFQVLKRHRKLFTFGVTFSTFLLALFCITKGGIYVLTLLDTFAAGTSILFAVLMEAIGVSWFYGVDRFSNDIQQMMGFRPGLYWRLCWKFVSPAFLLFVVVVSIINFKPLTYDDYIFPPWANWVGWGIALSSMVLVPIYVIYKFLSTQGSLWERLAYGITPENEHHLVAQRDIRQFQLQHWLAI

Row | Structure (SMILES) | potency at hNET relative to the other enantiomer or epimer
1 | CNC[C@H](c1ccc2ccccc2c1)[C@H](O)c1cc(F)cc(F)c1 (single isomer, unassigned) [compound 37] | more potent
2 | CNC[C@@H](c1ccc(Cl)c(Cl)c1)[C@@H](O)c1cccc([S+](C)[O-])c1 (single isomer, unassigned) [compound 116] | equipotent
3 | O[C@@H](c1ccccc1)[C@@H](CNCC(F)(F)F)c1ccc2ccccc2c1 (single isomer, unassigned) [compound 130] | equipotent
4 | CNC[C@H](c1ccc(Cl)c(Cl)c1)[C@H](O)c1cccc(N(C)C)c1 (single isomer, unassigned) [compound 168] | similar
5 | CNCC(Cc1ccccc1CO)c1ccc2ccccc2c1 (stereo not shown) [compound 2] | more potent
6 | CNC[C@H](c1ccc(Cl)c(Cl)c1)[C@H](O)c1ccccc1 [compound 10] | more potent
7 | CNC[C@H](c1ccc2ccccc2c1)[C@H](O)c1ccccc1F [compound 15] | more potent
8 | CNCC(c1ccc(Br)c(Cl)c1)[C@H](O)c1ccccc1 (stereo partly shown) [compound 16] | more potent
9 | CNC[C@H](c1ccc(Br)c(Cl)c1)[C@@H](O)c1ccccc1 [compound 21] | more potent
10 | CNC[C@H](c1ccc2ccccc2c1)[C@H](O)c1ccc(Cl)nc1 [compound 26] | higher inhibitory activity
11 | CNCC(CCc1ccccc1)[C@@H](O)c1ccccc1 (stereo partly shown) [compound 27] | more potent
12 | CNC[C@H](c1ccc2ccccc2c1)[C@H](O)c1ccccc1C [compound 28] | more potent
13 | CNCC(Cc1ccccc1C)c1ccc2ccccc2c1 (stereo not shown) [compound 39] | more potent
14 | C[C@](CN)(Cc1cccnc1)c1ccc2ccccc2c1 [compound 42] | more potent
15 | CNC[C@@H](Cc1ccc(C)s1)c1ccc2ccccc2c1 [compound 44] | higher potency
16 | CNCC(Cc1cccnc1)c1ccc2ccccc2c1 (stereo not shown) [compound 48] | more potent
17 | CNC[C@@H](c1ccc2ccccc2c1)[C@@H](O)c1cccnc1 [compound 49] | more potent
18 | CNCC(Cc1ccccc1O)c1ccc2ccccc2c1 (stereo not shown) [compound 52] | more potent
19 | CNC[C@H](c1ccc(OC)c(C)c1)[C@H](O)c1cccnc1 [compound 55] | more potent
20 | CNCC(Cc1ccccc1OC)c1ccc2ccccc2c1 (stereo not shown) [compound 57] | more potent
21 | CNC[C@H](c1ccc2ccccc2c1)[C@@H](O)c1ccccc1F [compound 60] | more potent
22 | CNC[C@H](c1ccc(Cl)c(Cl)c1)[C@@H](O)c1ccccc1[N+](=O)[O-] [compound 65] | more potent
23 | CNCC(CCc1ccccc1)[C@H](O)c1ccccc1 (stereo partly shown) [compound 66] | less potent

Row | Structure (SMILES) | potency at hNET relative to the other enantiomer or epimer
24 | CNC[C@H](c1ccc(Cl)c(Cl)c1)[C@@H](O)c1ccccc1 [compound 70] | more potent
25 | CNC[C@H](c1ccc(Cl)c(Cl)c1)[C@H](O)c1cccc(Br)c1 [compound 76] | more potent
26 | CNC[C@@H](c1ccc2ccccc2c1)[C@@H](O)c1ccccc1F [compound 78] | less potent
27 | CNCC(C[C@H](O)c1ccccc1)c1ccc2ccccc2c1 (stereo partly shown) [compound 85] | more potent
28 | CNCC(Cc1ccccc1CO)c1ccc2ccccc2c1 (stereo not shown) [compound 90] | less potent
29 | CNC[C@H](c1ccc2ccccc2c1)[C@H](O)c1cncc(OC)c1 [compound 92] | more potent
30 | CNC[C@H](C[C@H](O)c1ccccc1)c1ccc2ccccc2c1 [compound 93] | less potent
31 | CNC[C@H](c1ccc(Cl)c(Cl)c1)[C@@H](O)c1cccc(NC(C)=O)c1 [compound 94] | more potent
32 | NC[C@H](c1ccc2ccccc2c1)[C@@H](O)c1ccncc1Cl [compound 95] | higher inhibitory activity
33 | CNC[C@@H](c1ccc2ccccc2c1)[C@H](O)c1ccccc1F [compound 96] | less potent
34 | CNC[C@H](c1ccc(Cl)c(Cl)c1)[C@@H](O)c1ccccc1SC [compound 97] | more potent
35 | CNC[C@@H](c1ccc(Cl)c(Cl)c1)[C@H](O)c1cccc(NC(C)=O)c1 [compound 98] | less potent
36 | CNC[C@@H](c1ccc2ccccc2c1)[C@H](O)c1ccccn1 [compound 99] | lower inhibitory activity
37 | CNC[C@H](c1ccc(Cl)c(Cl)c1)[C@@H](O)c1ccccc1-c1cccs1 [compound 100] | higher inhibitory activity
38 | CNC[C@H](c1ccc(Cl)c(Cl)c1)[C@H](O)c1cccc(S(C)(=O)=O)c1 [compound 101] | higher potency
39 | CNC[C@H](c1ccc(Cl)c(Cl)c1)[C@H](O)c1cccc([N+](=O)[O-])c1 [compound 102] | more potent
40 | CNC[C@@H](c1ccc2ccccc2c1)[C@@H](O)c1cccnc1 [compound 103] | less potent
41 | CNC[C@H](c1ccc(Cl)c(Cl)c1)[C@@H](O)c1cccnc1OC [compound 104] | higher inhibitory activity
42 | CNC[C@@H](c1ccc(Cl)c(Cl)c1)[C@@H](O)c1ccsc1 [compound 106] | lower potency
43 | NCC(c1ccc2ccccc2c1)C(O)c1ccc(F)cc1F (stereo not shown) [compound 107] | higher potency
44 | CNC[C@@H](c1ccc(Cl)c(Cl)c1)[C@@H](O)c1cncc(OC)c1 [compound 109] | lower potency
45 | CNC[C@@H](c1ccc(Br)c(Cl)c1)[C@@H](O)c1ccccc1 [compound 110] | lower potency
46 | CNC[C@@H](c1ccc(Cl)c(Cl)c1)[C@@H](O)c1ccccc1 [compound 114] | weak hNET potency
